Experimental findings from US9725448B2, “Neprilysin inhibitors” (THERAVANCE BIOPHARMA R&D IP, LLC, priority 2011, dated 2017) are described below.

The term Ki denotes a measure of affinity in units of concentration, obtained from inhibition or displacement.

A value given as a limit tells only on which side of the number the result lay.

T1 sequence (P08473 52-750 limits assumed): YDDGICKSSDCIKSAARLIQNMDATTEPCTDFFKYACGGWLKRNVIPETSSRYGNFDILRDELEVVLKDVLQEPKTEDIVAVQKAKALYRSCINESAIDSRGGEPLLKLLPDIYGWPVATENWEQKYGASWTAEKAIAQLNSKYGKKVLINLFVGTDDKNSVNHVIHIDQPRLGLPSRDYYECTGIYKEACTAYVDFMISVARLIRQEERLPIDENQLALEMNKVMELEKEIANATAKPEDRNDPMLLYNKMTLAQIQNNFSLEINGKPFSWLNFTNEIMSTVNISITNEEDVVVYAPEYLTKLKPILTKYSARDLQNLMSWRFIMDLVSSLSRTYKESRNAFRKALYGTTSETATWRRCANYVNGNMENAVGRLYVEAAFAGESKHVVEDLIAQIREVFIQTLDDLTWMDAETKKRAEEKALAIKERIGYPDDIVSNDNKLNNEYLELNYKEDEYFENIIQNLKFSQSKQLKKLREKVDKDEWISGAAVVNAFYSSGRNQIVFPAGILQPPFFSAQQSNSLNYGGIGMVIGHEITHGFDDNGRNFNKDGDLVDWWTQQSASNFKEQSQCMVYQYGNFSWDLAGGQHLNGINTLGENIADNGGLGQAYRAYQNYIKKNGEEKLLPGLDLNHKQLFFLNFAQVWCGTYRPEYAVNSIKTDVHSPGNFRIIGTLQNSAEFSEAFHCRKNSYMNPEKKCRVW

This assay concerns the target T1, human NEP (Homo sapiens, UniProt P08473).
T1 construct: purchased R&D Systems, Minneapolis, Minn; 1182-ZN
In words: In vitro enzyme inhibition assay at human NEP (fluorogenic peptide substrate). It counts as biochemical. To be noted: pKi values at human NEP (recombinant), given as ranges.
Regarding `CC(C)(C[C@@H](Cc1ccc(-c2ccccc2)cc1)NC(=O)c1cnn[nH]1)C(=O)O` [Example 9-1, (R)-5-Biphenyl-4-yl-2,2-dimethyl-4-[(3H-[1,2,3]triazole-4-carbonyl)-amino]-pentanoic acid], the Ki is 1.26 to 10 nM.
Turning to `CC(O)(CN(Cc1ccc(-c2cccc(F)c2)cc1)NC(=O)c1cc(O)no1)C(=O)O` (stereo not shown) [Example 5, 3-[N-(3′-Fluorobiphenyl-4-ylmethyl)-N′-(3-hydroxy-isoxazole-5-carbonyl)-hydrazino]-2-hydroxy-2-methyl-propionic Acid], the inhibition constant (Ki) is 1.26 to 10 nM.
Take `CNC(=O)c1cc(C(=O)N[C@H](Cc2ccc(-c3ccccc3)cc2)CC(C)(C)C(=O)O)[nH]n1` [Example 9-12, (R)-5-Biphenyl-4-yl-2,2-dimethyl-4-[(5-methylcarbamoyl-2H-pyrazole-3-carbonyl)-amino]-pentanoic acid]: the inhibition constant (Ki) was 12.6 to 100 nM.
Consider `CC(C)(C[C@@H](Cc1ccc(-c2ccccc2)cc1)NC(=O)c1cc(C(=O)O)n[nH]1)C(=O)O` [Example 9-6, 5-((R)-1-Biphenyl-4-ylmethyl-3-carboxy-3-methyl-butylcarbamoyl)-1H-pyrazole-3-carboxylic acid], for which the Ki is at most 1 nM.
On to `CC(C)(C[C@@H](Cc1ccc(-c2ccccc2)cc1)NC(=O)c1cc(C(=O)N2CCC(O)C2)n[nH]1)C(=O)O` (stereo partly drawn) [Example 9-9, (R)-5-Biphenyl-4-yl-4-{[5-(3-hydroxy-pyrrolidine-1-carbonyl)-2H-pyrazole-3-carbonyl]-amino}-2,2-dimethyl-pentanoic acid], for which the Ki was 12.6 to 100 nM.
Then `C[C@](O)(C[C@@H](Cc1ccc(-c2ccccc2)cc1)NC(=O)c1cnc2nn[nH]c2c1)C(=O)O` [Example 2-6, (2S,4R)-5-Biphenyl-4-yl-2-hydroxy-2-methyl-4-[(1H-[1,2,3]triazolo[4,5-b]pyridine-6-carbonyl)-amino]-pentanoic acid], with 12.6 to 100 nM; and `C[C@@](O)(CN(Cc1ccc(-c2cc(Cl)ccc2F)cc1)NC(=O)c1cc(O)no1)C(=O)O` [Example 6A, (R)-3-[N-(5′-Chloro-2′-fluorobiphenyl-4-ylmethyl)-N′-(3-hydroxy-isoxazole-5-carbonyl)-hydrazino]-2-hydroxy-2-methyl-propionic acid], with at most 1 nM.
